Laboratory results published in article PMC4501006, “Preliminary Characterization and In Vivo Studies of Structurally Identical ^18F- and ^125I-Labeled Benzyloxybenzenes for PET/SPECT Imaging of β-Amyloid Plaques” (Scientific Reports, 2015).
Several values for one entry are separate records, joined by “and”; a condition that tells them apart may be missing. Equal entries are not always repeated.

What was measured:
Aβ42 aggregates = Aβ42 aggregates (Homo sapiens, UniProt P05067); test: Competition binding assay using [125I]4 as radio-ligand; conditions: inhibition of [125I]4 binding to Aβ42 aggregates
Chain of Aβ42 aggregates (P05067 672-713 limits assumed): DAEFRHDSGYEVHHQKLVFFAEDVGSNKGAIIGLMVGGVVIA
Source text: The actual binding affinities agreed well with values predicted by the CoMFA and CoMSIA models, with pKi values deviating by less than 0.5 log unit. This satisfactory result strongly validated the reliability of the established 3D-QSAR models. This ability to accurately predict the binding activities of new benzyloxybenzene derivatives will be of great help for future efforts to design new potent Aβ imaging agents.

[1] = Partition coefficient determination (log D); type: physicochemical
Method: An ideal Aβ imaging probe would combine a high binding affinity to Aβ plaques and excellent pharmacokinetics with high initial brain uptake and rapid washout from normal brain regions. Thus, the partition coefficients of these four radiolabeled ligands were determined to estimate their ability to penetrate the BBB.

[2] = In vivo biodistribution in normal ICR mice; conditions: i.v.
Method: Histograms of brain and intestine uptake were presented in Fig. 6 for comparison, while detailed data concerning the in vivo biodistribution in normal ICR mice were collected in Table S3 in Supplementary information. […] [^125I]7a and [^125I]12a were rapidly cleared from the normal brain, with only small amounts of radioactivity remaining at 60 min post-injection (0.55% ID/g for [^125I]7a and 0.37% ID/g for [^125I]12a). […] In addition, no significant deiodination was observed (less than 0.5% ID in the thyroid at 60 min).
As the specific activity of ^18F-labeled ligands (about 60 GBq/μmol) was slightly lower than that of corresponding no-carrier-added ^125I-labeled ligands (81 GBq/μmol), the impact of specific activity on pharmacokinetics was studied. In vivo biodistribution of radioactivity after injection of carrier-added [^125I]7a with equal specific activity to corresponding [^18F]7a (60 GBq/μmol) was conducted in normal ICR mice through the same procedure.
A structural model of an Aβ fiber (PDB ID: 2LMO) derived from solid state NMR was downloaded from the RCSB Protein Data Bank (www.rcsb.org/pdb). Geometric optimization was performed using Gaussian 09 at the B3LYP/6–31 G and 3-21G levels in the water phase. Molecular docking was performed using AutoDock4.0, and the docking results were graphed with VMD 1.9.1 software. SYBYL-X 1.1 software was used to predict the binding affinities with previously constructed 3D-QSAR models. All reagents for chemical synthesis were used as purchased without further purification. [^125I]NaI was purchased from PerkinElmer and ^18F^– was kindly provided by the Chinese PLA General Hospital. ^1H and ^13C NMR spectra were recorded on a Bruker Avance III NMR spectrometer (400 MHz for ^1H; 101 MHz for ^13C) in CDCl3 or DMSO-d6 solutions at room temperature. Mass spectra were acquired with a GCT CA127 Micronass UK instrument. X-ray crystallographic data of compound 12a were collected on a Bruker Smart APEX II diffractometer (Bruker Co., Germany) and deposited at the Cambridge Crystallographic Data Centre as supplementary publication (no. CCDC 1063679). HPLC analysis was performed on a Shimadzu SCL-20 AVP equipped with a Bioscan Flow Count 3200 NaI/PMT γ-radiation scintillation detector and a SPD-20A UV detector, λ = 254 nm. A Venusil MP C18 reverse phase column (Agela Technologies, 5 μm, 4.6 × 250 mm) was used for separations and purity determinations with a binary gradient system (acetonitrile: water = 80%: 20%) at a 1.0 mL/min flow rate. Fluorescent observation was performed on the Axio Observer Z1 inverted fluorescence microscope (Zeiss, Germany) equipped with a DAPI filter set (excitation, 405 nm). Post-mortem brain sections from an autopsy-confirmed AD subject and a control subject were acquired from the Chinese Brain Bank. Transgenic mice (APPswe/PSEN1, male) and wild-type mice (C57BL6, male) were purchased from the Institute of Laboratory Animal Science, Chinese Academy of Medical Sciences. Normal ICR mice (20–22 g, male) were used for in vivo biodistribution, dynamic PET/CT and SPECT/CT scans, and biostability experiments. All experiments on mice were performed in accordance with the guidelines approved by the animal care committee of Beijing Normal University and Xiamen University.

[3] = In vivo metabolism (biostability), HPLC analysis of organ samples; conditions: ICR mice, i.v.
Method: All four radioactive ligands degraded to two corresponding polar radioactive products with shorter retention times. […] The good in vivo biostability of these compounds enhances their potential for SPECT mapping of the brain. […] In the plasma, all four ligands were rapidly converted to polar metabolites, leaving only approximately 10% of the parent tracers at 60 min. […] In contrast, the breakdown of [^125I]7a and [^125I]12a was so rapid that almost negligible amounts of parent tracers remained at 30 min (8.8% and 6.3%, respectively). The polar and hydrophilic metabolites metabolized by the liver could be absorbed by the intestine and excreted through the urine, in accordance with the biodistribution results. The rapid metabolism in the liver may be another reason for the faster clearance of these compounds from the normal brain. For structurally identical molecules labeled with radioactive isotopes at different positions, the in vivo metabolic pathways were expected to be the same. However, as only radioactive products can be detected with PET/SPECT scanners, different pharmacokinetics of the radioactive components could lead to different imaging results. […] The dual radiolabeled identical benzyloxybenzene derivatives in this study were expected to undergo the same metabolic reactions, generating different radioactive metabolites. Differences in the biochemical characteristics of the radiometabolites including absorption, distribution, metabolism and excretion are responsible for the discrepancy in the pharmacokinetics of the radioactivity.

Aβ plaques = Aβ plaques (Homo sapiens, UniProt P05067); test: In vitro autoradiography on AD human brain sections; type: binding
Chain of Aβ plaques (P05067 672-711 limits assumed): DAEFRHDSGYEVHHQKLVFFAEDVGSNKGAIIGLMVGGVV
Source text: Figure 5 In vitro autoradiography of [^125I]7a (a–d), [^18F]7a (e–h), [^125I]12a (i–l) and [^18F]12a (m–p).

FCCOc1ccc(OCc2ccc(I)cc2)cc1 [7a]
Ki (Aβ42 aggregates): 19.5 nM

FCCOc1ccc(COc2ccc(I)cc2)cc1 [12a]
Ki (Aβ42 aggregates): 23.9 nM

FCCOc1ccc(COc2ccc([125I])cc2)cc1 [[^125I]12a]
logD [1]: 3.62 ± 0.15 | brain2 min/brain60 min ratio [2]: 14.2 | Biodistribution of radioactivity, blood ([2]; 2 min): 4.96 ± 0.35 % injected dose per gram | Biodistribution of radioactivity, brain ([2]; 2 min): > 5 % injected dose per gram and 5.27 % injected dose per gram | Biodistribution of radioactivity, heart ([2]; 2 min): 6.61 ± 1.42 % injected dose per gram | Biodistribution of radioactivity, intestine ([2]; 2 min): 4.81 ± 0.97 % injected dose per organ | Biodistribution of radioactivity, kidney ([2]; 2 min): 9.16 ± 0.59 % injected dose per gram | Biodistribution of radioactivity, liver ([2]; 2 min): 18.12 ± 2.34 % injected dose per gram | Biodistribution of radioactivity, lung ([2]; 2 min): 10.30 ± 2.16 % injected dose per gram | Biodistribution of radioactivity, muscle ([2]; 2 min): 3.47 ± 0.45 % injected dose per gram | Biodistribution of radioactivity, pancreas ([2]; 2 min): 6.45 ± 0.56 % injected dose per gram | Biodistribution of radioactivity, spleen ([2]; 2 min): 2.85 ± 0.30 % injected dose per gram | Biodistribution of radioactivity, stomach ([2]; 2 min): 1.30 ± 0.14 % injected dose per organ | Biodistribution of radioactivity, thyroid ([2]; 2 min): 0.13 ± 0.02 % injected dose per organ | Biodistribution of radioactivity, brain ([2]; 2 min, listed as [125I]12a): 5.27 ± 0.98 % injected dose per gram | Biodistribution of radioactivity, blood ([2]; 10 min): 3.88 ± 0.79 % injected dose per gram | Biodistribution of radioactivity, brain ([2]; 10 min): 2.28 ± 0.27 % injected dose per gram | Biodistribution of radioactivity, heart ([2]; 10 min): 2.12 ± 0.16 % injected dose per gram | Biodistribution of radioactivity, intestine ([2]; 10 min): 10.68 ± 2.60 % injected dose per organ | Biodistribution of radioactivity, kidney ([2]; 10 min): 7.61 ± 1.23 % injected dose per gram | Biodistribution of radioactivity, liver ([2]; 10 min): 12.07 ± 1.06 % injected dose per gram | Biodistribution of radioactivity, lung ([2]; 10 min): 4.16 ± 0.26 % injected dose per gram | Biodistribution of radioactivity, muscle ([2]; 10 min): 1.31 ± 0.12 % injected dose per gram | Biodistribution of radioactivity, pancreas ([2]; 10 min): 2.44 ± 0.28 % injected dose per gram | Biodistribution of radioactivity, spleen ([2]; 10 min): 1.29 ± 0.06 % injected dose per gram | Biodistribution of radioactivity, stomach ([2]; 10 min): 1.34 ± 0.16 % injected dose per organ | Biodistribution of radioactivity, thyroid ([2]; 10 min): 0.13 ± 0.01 % injected dose per organ | Biodistribution of radioactivity, blood ([2]; 30 min): 3.89 ± 0.53 % injected dose per gram | Biodistribution of radioactivity, brain ([2]; 30 min): 0.81 ± 0.06 % injected dose per gram | Biodistribution of radioactivity, heart ([2]; 30 min): 1.67 ± 0.09 % injected dose per gram | Biodistribution of radioactivity, intestine ([2]; 30 min): 16.61 ± 3.88 % injected dose per organ | Biodistribution of radioactivity, kidney ([2]; 30 min): 7.44 ± 0.90 % injected dose per gram | Biodistribution of radioactivity, liver ([2]; 30 min): 8.68 ± 1.02 % injected dose per gram | Biodistribution of radioactivity, lung ([2]; 30 min): 3.56 ± 0.38 % injected dose per gram | Biodistribution of radioactivity, muscle ([2]; 30 min): 0.99 ± 0.17 % injected dose per gram | Biodistribution of radioactivity, pancreas ([2]; 30 min): 1.75 ± 0.10 % injected dose per gram | Biodistribution of radioactivity, spleen ([2]; 30 min): 1.03 ± 0.10 % injected dose per gram | Biodistribution of radioactivity, stomach ([2]; 30 min): 2.02 ± 0.49 % injected dose per organ | Biodistribution of radioactivity, thyroid ([2]; 30 min): 0.19 ± 0.04 % injected dose per organ | Biodistribution of radioactivity, blood ([2]; 60 min): 3.01 ± 1.07 % injected dose per gram | Biodistribution of radioactivity, brain ([2]; 60 min): 0.37 % injected dose per gram | Biodistribution of radioactivity, heart ([2]; 60 min): 1.17 ± 0.45 % injected dose per gram | Biodistribution of radioactivity, intestine ([2]; 60 min): 18.84 ± 8.75 % injected dose per organ | Biodistribution of radioactivity, kidney ([2]; 60 min): 6.09 ± 2.17 % injected dose per gram | Biodistribution of radioactivity, liver ([2]; 60 min): 4.64 ± 0.77 % injected dose per gram | Biodistribution of radioactivity, lung ([2]; 60 min): 3.11 ± 1.02 % injected dose per gram | Biodistribution of radioactivity, muscle ([2]; 60 min): 1.20 ± 0.26 % injected dose per gram | Biodistribution of radioactivity, pancreas ([2]; 60 min): 1.37 ± 0.41 % injected dose per gram | Biodistribution of radioactivity, spleen ([2]; 60 min): 0.84 ± 0.31 % injected dose per gram | Biodistribution of radioactivity, stomach ([2]; 60 min): 2.27 ± 0.40 % injected dose per organ | Biodistribution of radioactivity, thyroid ([2]; 60 min): 0.34 ± 0.10 % injected dose per organ | Biodistribution of radioactivity, brain ([2]; 60 min, listed as [125I]12a): 0.37 ± 0.06 % injected dose per gram | Percentage of Parent tracer, Brain ([3]; post-injection time 2 min): 92.1% | Percentage of Parent tracer, Feces ([3]; post-injection time 2 min): 0.0% | Percentage of Parent tracer, Liver ([3]; post-injection time 2 min): 49.1% | Percentage of Parent tracer, Plasma ([3]; post-injection time 2 min): 88.4% | Percentage of Parent tracer, Urine ([3]; post-injection time 2 min): 0.0% | Percentage of Parent tracer, Brain ([3]; post-injection time 10 min): 82.1% | Percentage of Parent tracer, Feces ([3]; post-injection time 10 min): 0.0% | Percentage of Parent tracer, Liver ([3]; post-injection time 10 min): 21.5% | Percentage of Parent tracer, Plasma ([3]; post-injection time 10 min): 29.6% | Percentage of Parent tracer, Urine ([3]; post-injection time 10 min): 0.0% | Percentage of Parent tracer, Brain ([3]; post-injection time 30 min): 78.3% | Percentage of Parent tracer, Feces ([3]; post-injection time 30 min): 0.0% | Percentage of Parent tracer, Liver ([3]; post-injection time 30 min): 6.3% | Percentage of Parent tracer, Plasma ([3]; post-injection time 30 min): 26.3% | Percentage of Parent tracer, Urine ([3]; post-injection time 30 min): 0.0% | Percentage of Parent tracer, Brain ([3]; post-injection time 60 min): 68.6% | Percentage of Parent tracer, Feces ([3]; post-injection time 60 min): 0.0% | Percentage of Parent tracer, Liver ([3]; post-injection time 60 min): 3.8% | Percentage of Parent tracer, Plasma ([3]; post-injection time 60 min): 4.68% | Percentage of Parent tracer, Urine ([3]; post-injection time 60 min): 0.0% | in vitro autoradiography, plaque labeling (Aβ plaques): specifically label Aβ deposits
